Assay results published in patent publication US10004761B2, “Malodor neutralizing composition” (priority 2016, dated 2018).

Tests used:
chondroitinase ABC = assay: HA gelation consistency (Method III) in the presence of Chondroitinase ABC; format: biochemical, Proteus vulgaris; details: Table 4: NAC 400 mg dry powder (20% final), HA 2 cc of 1%, Chondroitinase ABC 50 μL, 37° C.; cell wraps: Viscous liquid
Procedure: Method III (Viscosity of HA): HA at low concentrations (e.g., 1%) in aqueous solution forms a viscous colloidal hydrogel solution, which yields semi-solid gel particles at room temperature and a solid gel at 4° C.
HA degradation was evaluated using Method III, as described hereinabove.
HA state of gelation was studied in the presence of NAC and various HA-degrading enzymes, using the following Stock solutions:
The tested enzyme (50 μL) was placed in a tube, NAC (50 μL of the Stock solution, final concentration of about 3.3%) was added and the mixture was incubated for 2 hours at room temperature (23° C.). Then, 2 ml of HA 1% were added to each tube and tubes were further incubated at room temperature for additional 24 hours.
In a second set of experiments, NAC (50 μL of the Stock solution) was added to a tube containing 2 ml of HA 1%; and the tubes were incubated for 2 hours at room temperature. Then, the HA-degrading enzyme was added and tubes were incubated at room temperature for additional 24 hours. In control tubes 9 and 10 (containing only HA), 50 μL of water were added to achieve the same volume as the other tested tubes.
In another set of experiments, the effect of NAC powder, (at a final concentration of 20%), on HA gelation in the presence of Hyase or Chondroitinase ABC was tested. […]

[1] = tested on: hyaluronidase Type IV-S, from bovine testes (Hyase); assay: Dische's assay (Method II) of HA degradation by Hyase with inhibitors; format: biochemical
Procedure: Method II (Dische's assay; detection of uronic acid residues): Assays were performed by following the procedures described in Dische Z. [J. Biol. Chem., 1947, 167, p. 189-198] and Dische and Rothschild [Anal Biochem., 1967, 21(1), p. 125-30]. In these assays, molecules containing the uronic acid residues found in the precipitate formed upon CPC additions, are re-solubilized and products formed by -sulfuric acid hydrolysis of these fragments are detected by a spectrophotometric assay employing carbazole chromagen reagent. In addition, small residues degraded off the HA chains that have not precipitated with the addition of CPC, can be detected by the carbazole assay performed on the solution, so as to detect all of the uronic acid content.
Evaluation of HA degradation by this method was generally performed as follows:
20 μL of a NAC stock solution, and 20 μL of the stock solutions of the other inhibitors were used in the assay.
200 μL of the HA stock solution were placed in each tube, for achieving a 1 mg HA per tube.
Twenty (20) μL of hyase and 20 μL of NAC were combined and incubated for 2 hours. Then 200 μL of HA (1 mg) were added to each tube and the mixture was incubated at room temperature for 24 hours. Thereafter, the tubes were heated for 2 minutes in boiling water bath and 8 mL of doubled distilled water were added to the tubes as preparation for the Dische's assay.
As per Dische's Assay, 100 μL of 3N NaCl and 0.5 mL of 10% CPC (cetylpyridinium chloride) were thereafter added to each tube and the mixture was incubated at 37° C. until flocculation-turbidity (resulting from precipitation of HA+CPC) could be observed. The mixture was centrifuged for 10 minutes at 10,000 g at room temperature, and the supernatant was thereafter separated from the obtained pellet.
The pellet was dissolved in 1 ml of CaCl2, and the obtained solution was incubated at 37° C. until complete dissolution of the pellet is obtained. A 2:1 v/v ethanol/ether mixture (8 ml) was thereafter added, and the mixture was intensively stirred (by vortex) and kept at −20° C. overnight. The obtained pellet was collected following a centrifugation for 10 minutes at 10,000 g. Then, distilled water (1 mL) was added to solubilize the pellet, followed by addition of 0.2 ml Carbazole 1%. The mixture was stirred thoroughly, and concentrated sulfuric acid (6 mL) was thereafter added.
The samples were transferred into tight closed tubes, placed for 10 minutes in a boiling water bath, and was thereafter cooled in ice until it reached room temperature.
The pink-violet color developed by the chromogen was measured using a spectrophotometer at 527 nm.
Ditch assay, as described hereinabove (Method II) was performed while using the following Hyase inhibitors:
The experiment was run at room temperature (23° C.). Hyase and Inhibitors were incubated first for 2 hours prior to the addition of HA. Blank tubes included no substrate (HA) and Control tubes included no enzyme, no inhibitor and HA (200 μL). Tubes 5 and 6 contained HA and Hyase with no inhibitor. Standard Solutions with no enzyme and no inhibitor and HA 50 μL and 10 μL were also tested, for calibration. % HA cleaved denotes the weight percent of HA that was degraded. % HA residue denotes the weight percent of non-degraded HA, and represents the % of Hyase inhibition.

[2] = Solubility of NAC crystals in water; format: physicochemical
Procedure: The solubility of NAC crystals in water was measured for different NAC concentrations, at different temperatures.

Compound: CC(=O)N[C@@H](CS)C(=O)O [NAC, N-acetyl L-cysteine]
- Consistency (chondroitinase ABC): Viscous
- % HA degraded ([1]; 20 μL inhibitor stock incubated 2 h with 20 μL Hyase, then HA 200 μL, room temperature 24 h): 0%
- inhibition of HA degradation ([1]; NAC final concentration of the incubate 2%, Tubes 11-12): completely inhibited HA degradation
- % of inhibition of HA degradation ([1]; derived from Table 1): 100%
- % HA intact (precipitated) ([1]; represents % of Hyase inhibition, 20 μL inhibitor, 20 μL Hyase, HA 200 μL, room temperature 24 h): 100%
- Clearance (solubility of NAC crystals in water) ([2]; NAC concentration 10%, at 4° C. (storage)): Clear
- Clearance (solubility of NAC crystals in water) ([2]; NAC concentration 10%, at 23° C., room temperature): Clear
- Clearance (solubility of NAC crystals in water) ([2]; NAC concentration 10%, at 34-37° C., skin and body temperature): Clear
- Clearance (solubility of NAC crystals in water) ([2]; NAC concentration 12%, at 4° C. (storage)): Clear
- Clearance (solubility of NAC crystals in water) ([2]; NAC concentration 12%, at 23° C., room temperature): Clear
- Clearance (solubility of NAC crystals in water) ([2]; NAC concentration 12%, at 34-37° C., skin and body temperature): Clear
- Clearance (solubility of NAC crystals in water) ([2]; NAC concentration 14%, at 4° C. (storage)): Clear
- Clearance (solubility of NAC crystals in water) ([2]; NAC concentration 14%, at 23° C., room temperature): Clear
- Clearance (solubility of NAC crystals in water) ([2]; NAC concentration 14%, at 34-37° C., skin and body temperature): Clear
- Clearance (solubility of NAC crystals in water) ([2]; NAC concentration 16%, at 4° C. (storage), cell wraps: Minimal crystals appearance): Minimal crystals
- Clearance (solubility of NAC crystals in water) ([2]; NAC concentration 16%, at 23° C., room temperature): Clear
- Clearance (solubility of NAC crystals in water) ([2]; NAC concentration 16%, at 34-37° C., skin and body temperature): Clear
- Clearance (solubility of NAC crystals in water) ([2]; NAC concentration 18%, at 4° C. (storage)): More crystals
- Clearance (solubility of NAC crystals in water) ([2]; NAC concentration 18%, at 23° C., room temperature, cell wraps: Minimal crystals appearance): Minimal
- Clearance (solubility of NAC crystals in water) ([2]; NAC concentration 18%, at 34-37° C., skin and body temperature): Clear
- Clearance (solubility of NAC crystals in water) ([2]; NAC concentration 20%, at 4° C. (storage)): More crystals
- Clearance (solubility of NAC crystals in water) ([2]; NAC concentration 20%, at 23° C., room temperature): More crystals
- Clearance (solubility of NAC crystals in water) ([2]; NAC concentration 20%, at 34-37° C., skin and body temperature): Clear
- NAC concentration completely soluble in water ([2]; at 23° C. and at lower temperatures): ≤ 15%
- concentration at which NAC solubilization reaches saturation ([2]; at room temperature, presumed from crystals in the HA gel tubes): 20%
- NAC concentration completely soluble in water ([2]; from 34° C. and up): ≥ 20%
